Each compound was assayed against LRRK2 (human) (UniProt Q5S007) (assay: radiometric filter-binding kinase assay, Kinase HotSpot). Settings: compound 0.5 µM; ATP 10 µM.

**Q.** O=c1c(-c2ccc(F)cc2)c(-c2ccncc2)[nH]n1-c1ccc(Cl)cc1 was tested. Which residual activity did it give?
**A.** Its residual activity is 102%.

Each compound was assayed against CDK5 CDK5R1 p35 (human) (UniProt Q00535+Q15078) in the same assay as above. Settings: compound 0.5 µM.

**Q.** O=c1[nH]c2ccccc2n1C1CCN(Cc2ccc(-c3nc4cc5[nH]cnc5cc4nc3-c3ccccc3)cc2)CC1 was tested. Which residual activity did it give?
**A.** The residual activity was 91.9%.

Same assay, conditions: compound 0.5 µM; ATP 10 µM

**Q.** N#Cc1c(NC(=O)c2cccc3ccccc23)sc2c1CCCC2 was tested. Which residual activity did it give?
**A.** The residual activity was 105%.

**Q.** Which residual activity does the source give for CN[C@@H]1C[C@H]2O[C@@](C)([C@@H]1OC)n1c3ccccc3c3c4c(c5c6ccccc6n2c5c31)C(=O)NC4 here?
**A.** Its residual activity is 1.92%.

**Q.** How did the residual activity turn out when COc1cc2c(N3CCN(C(=O)Nc4ccc(OC(C)C)cc4)CC3)ncnc2cc1OCCCN1CCCCC1 was run?
**A.** Its residual activity is 99.4%.

**Q.** O=c1c(-c2ccc(F)cc2)c(-c2ccncc2)[nH]n1-c1ccc(Cl)cc1 was tested. Which residual activity did it give?
**A.** Its residual activity is 104%.

These compounds were tested against DMPK (human) (UniProt Q09013) in the same assay as above. Settings: compound 0.5 µM; ATP 10 µM.
Sequence of DMPK (human) (Q09013 whole entry, looked up): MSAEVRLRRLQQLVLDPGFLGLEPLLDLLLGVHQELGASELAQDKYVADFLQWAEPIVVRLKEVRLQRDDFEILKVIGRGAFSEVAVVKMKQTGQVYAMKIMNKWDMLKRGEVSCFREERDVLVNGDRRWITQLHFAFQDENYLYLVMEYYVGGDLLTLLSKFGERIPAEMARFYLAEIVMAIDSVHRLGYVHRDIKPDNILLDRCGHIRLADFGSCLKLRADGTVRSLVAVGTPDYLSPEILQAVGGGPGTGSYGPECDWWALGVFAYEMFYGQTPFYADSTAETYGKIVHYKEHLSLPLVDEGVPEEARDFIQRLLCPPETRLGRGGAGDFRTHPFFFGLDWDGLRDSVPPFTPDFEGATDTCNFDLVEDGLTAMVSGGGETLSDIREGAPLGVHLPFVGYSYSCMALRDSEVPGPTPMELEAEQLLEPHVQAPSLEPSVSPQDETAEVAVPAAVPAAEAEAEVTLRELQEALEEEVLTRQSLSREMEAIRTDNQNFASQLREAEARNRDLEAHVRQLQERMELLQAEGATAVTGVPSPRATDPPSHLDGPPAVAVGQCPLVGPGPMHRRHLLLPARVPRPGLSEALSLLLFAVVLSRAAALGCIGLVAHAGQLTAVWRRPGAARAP

**Q.** N#Cc1c(NC(=O)c2cccc3ccccc23)sc2c1CCCC2 was tested. Which residual activity did it give?
**A.** Its residual activity is 109%.

**Q.** CN[C@@H]1C[C@H]2O[C@@](C)([C@@H]1OC)n1c3ccccc3c3c4c(c5c6ccccc6n2c5c31)C(=O)NC4 was tested. Which residual activity did it give?
**A.** Its residual activity is 4.83%.

**Q.** How did the residual activity turn out when COc1cc2c(N3CCN(C(=O)Nc4ccc(OC(C)C)cc4)CC3)ncnc2cc1OCCCN1CCCCC1 was run?
**A.** Its residual activity is 101%.

**Q.** With O=c1[nH]c2ccccc2n1C1CCN(Cc2ccc(-c3nc4cc5[nH]cnc5cc4nc3-c3ccccc3)cc2)CC1 as the compound, how does the residual activity read?
**A.** The residual activity was 98%.

**Q.** O=c1c(-c2ccc(F)cc2)c(-c2ccncc2)[nH]n1-c1ccc(Cl)cc1 was tested. Which residual activity did it give?
**A.** Its residual activity is 87.6%.

Each compound was assayed against HIPK2 (human) (UniProt Q9H2X6) in the same assay as above. Settings: compound 0.5 µM; ATP 10 µM.
Sequence of HIPK2 (human) (Q9H2X6 whole entry, looked up): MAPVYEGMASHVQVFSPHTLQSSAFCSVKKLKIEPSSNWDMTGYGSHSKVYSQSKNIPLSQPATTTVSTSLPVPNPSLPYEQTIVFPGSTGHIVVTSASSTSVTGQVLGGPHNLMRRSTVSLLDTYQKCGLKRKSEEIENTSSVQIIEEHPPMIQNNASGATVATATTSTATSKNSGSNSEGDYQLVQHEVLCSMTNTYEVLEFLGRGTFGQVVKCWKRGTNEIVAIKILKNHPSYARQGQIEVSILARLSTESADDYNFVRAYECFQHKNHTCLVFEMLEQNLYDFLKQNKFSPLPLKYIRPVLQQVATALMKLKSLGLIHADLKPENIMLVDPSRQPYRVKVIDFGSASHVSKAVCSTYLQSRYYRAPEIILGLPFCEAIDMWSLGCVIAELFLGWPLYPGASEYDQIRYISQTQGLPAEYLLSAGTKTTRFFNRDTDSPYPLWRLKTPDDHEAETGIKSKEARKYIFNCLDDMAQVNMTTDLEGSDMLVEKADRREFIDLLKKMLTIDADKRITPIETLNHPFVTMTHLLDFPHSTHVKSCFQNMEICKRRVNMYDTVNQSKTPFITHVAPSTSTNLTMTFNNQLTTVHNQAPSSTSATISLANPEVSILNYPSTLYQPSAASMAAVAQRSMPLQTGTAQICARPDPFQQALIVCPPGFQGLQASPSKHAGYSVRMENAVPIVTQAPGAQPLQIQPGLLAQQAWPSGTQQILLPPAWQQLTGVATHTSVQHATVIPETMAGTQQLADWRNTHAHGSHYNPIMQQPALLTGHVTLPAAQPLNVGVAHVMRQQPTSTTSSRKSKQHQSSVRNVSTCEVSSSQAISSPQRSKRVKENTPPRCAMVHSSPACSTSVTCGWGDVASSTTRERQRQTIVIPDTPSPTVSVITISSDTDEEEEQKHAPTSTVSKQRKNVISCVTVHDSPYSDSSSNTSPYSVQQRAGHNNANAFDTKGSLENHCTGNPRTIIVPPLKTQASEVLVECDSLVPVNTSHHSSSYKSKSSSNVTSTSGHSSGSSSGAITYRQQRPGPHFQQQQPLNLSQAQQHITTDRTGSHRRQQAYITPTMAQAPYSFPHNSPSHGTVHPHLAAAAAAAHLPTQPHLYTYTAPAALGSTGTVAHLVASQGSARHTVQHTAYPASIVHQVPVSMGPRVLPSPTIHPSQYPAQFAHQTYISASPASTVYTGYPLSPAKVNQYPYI

**Q.** How did the residual activity turn out when COc1cc2c(N3CCN(C(=O)Nc4ccc(OC(C)C)cc4)CC3)ncnc2cc1OCCCN1CCCCC1 was run?
**A.** The residual activity was 91.8%.

**Q.** With O=c1[nH]c2ccccc2n1C1CCN(Cc2ccc(-c3nc4cc5[nH]cnc5cc4nc3-c3ccccc3)cc2)CC1 as the compound, how does the residual activity read?
**A.** Its residual activity is 110%.

**Q.** O=c1c(-c2ccc(F)cc2)c(-c2ccncc2)[nH]n1-c1ccc(Cl)cc1 was tested. Which residual activity did it give?
**A.** Its residual activity is 89%.

These compounds were tested against STK10 (human) (UniProt O94804) in the same assay as above. Settings: compound 0.5 µM; ATP 10 µM.
Sequence of STK10 (human) (O94804 whole entry, looked up): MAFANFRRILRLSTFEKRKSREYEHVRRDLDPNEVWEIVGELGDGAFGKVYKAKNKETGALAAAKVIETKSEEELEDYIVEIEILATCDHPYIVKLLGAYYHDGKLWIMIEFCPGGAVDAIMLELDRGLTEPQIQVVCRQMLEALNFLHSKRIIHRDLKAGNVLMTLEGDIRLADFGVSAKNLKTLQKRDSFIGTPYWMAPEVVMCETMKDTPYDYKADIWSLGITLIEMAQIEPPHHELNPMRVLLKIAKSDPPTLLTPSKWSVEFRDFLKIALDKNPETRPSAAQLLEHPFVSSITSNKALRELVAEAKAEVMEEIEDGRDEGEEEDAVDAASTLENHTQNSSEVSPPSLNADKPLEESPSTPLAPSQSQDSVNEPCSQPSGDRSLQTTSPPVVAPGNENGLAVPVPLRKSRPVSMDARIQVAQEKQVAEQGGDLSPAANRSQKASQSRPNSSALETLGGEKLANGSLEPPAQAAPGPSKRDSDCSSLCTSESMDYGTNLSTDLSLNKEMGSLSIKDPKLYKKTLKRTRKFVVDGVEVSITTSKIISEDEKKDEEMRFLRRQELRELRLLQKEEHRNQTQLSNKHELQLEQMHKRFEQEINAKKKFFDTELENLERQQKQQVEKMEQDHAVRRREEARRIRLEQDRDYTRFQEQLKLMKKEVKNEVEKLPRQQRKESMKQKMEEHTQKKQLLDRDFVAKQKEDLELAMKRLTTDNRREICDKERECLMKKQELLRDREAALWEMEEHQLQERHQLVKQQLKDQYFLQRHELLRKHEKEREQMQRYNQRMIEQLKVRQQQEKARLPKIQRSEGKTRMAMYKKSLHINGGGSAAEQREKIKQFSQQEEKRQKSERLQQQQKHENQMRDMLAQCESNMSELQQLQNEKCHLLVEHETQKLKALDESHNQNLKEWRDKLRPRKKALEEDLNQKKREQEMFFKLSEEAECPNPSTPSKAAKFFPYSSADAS

**Q.** For N#Cc1c(NC(=O)c2cccc3ccccc23)sc2c1CCCC2, which residual activity is on record?
**A.** The residual activity was 97.7%.

**Q.** How did the residual activity turn out when COc1cc2c(N3CCN(C(=O)Nc4ccc(OC(C)C)cc4)CC3)ncnc2cc1OCCCN1CCCCC1 was run?
**A.** The residual activity was 95%.

**Q.** With O=c1[nH]c2ccccc2n1C1CCN(Cc2ccc(-c3nc4cc5[nH]cnc5cc4nc3-c3ccccc3)cc2)CC1 as the compound, how does the residual activity read?
**A.** The residual activity was 92.6%.

**Q.** With O=c1c(-c2ccc(F)cc2)c(-c2ccncc2)[nH]n1-c1ccc(Cl)cc1 as the compound, how does the residual activity read?
**A.** Its residual activity is 81.9%.

Each compound was assayed against GSK3B (human) (UniProt P49841) in the same assay as above. Settings: compound 0.5 µM; ATP 10 µM.
Sequence of GSK3B (human) (P49841 whole entry, looked up): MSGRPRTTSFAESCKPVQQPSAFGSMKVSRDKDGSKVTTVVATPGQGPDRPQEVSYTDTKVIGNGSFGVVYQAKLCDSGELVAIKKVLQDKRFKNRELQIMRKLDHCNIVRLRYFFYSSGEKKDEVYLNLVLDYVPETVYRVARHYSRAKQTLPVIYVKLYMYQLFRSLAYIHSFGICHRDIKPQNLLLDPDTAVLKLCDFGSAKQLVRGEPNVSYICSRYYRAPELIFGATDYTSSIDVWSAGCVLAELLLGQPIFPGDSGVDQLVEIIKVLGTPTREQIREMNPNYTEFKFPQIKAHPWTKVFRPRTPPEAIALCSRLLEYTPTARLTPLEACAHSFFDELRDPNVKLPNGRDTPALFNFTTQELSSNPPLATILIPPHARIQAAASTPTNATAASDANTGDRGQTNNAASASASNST

**Q.** Which residual activity does the source give for N#Cc1c(NC(=O)c2cccc3ccccc23)sc2c1CCCC2 here?
**A.** Its residual activity is 97.5%.

**Q.** How did the residual activity turn out when COc1cc2c(N3CCN(C(=O)Nc4ccc(OC(C)C)cc4)CC3)ncnc2cc1OCCCN1CCCCC1 was run?
**A.** Its residual activity is 98.1%.

**Q.** O=c1[nH]c2ccccc2n1C1CCN(Cc2ccc(-c3nc4cc5[nH]cnc5cc4nc3-c3ccccc3)cc2)CC1 was tested. Which residual activity did it give?
**A.** Its residual activity is 113%.

**Q.** How did the residual activity turn out when O=c1c(-c2ccc(F)cc2)c(-c2ccncc2)[nH]n1-c1ccc(Cl)cc1 was run?
**A.** Its residual activity is 91.6%.

Each compound was assayed against MAP2K2 (human) (UniProt P36507) in the same assay as above. Settings: compound 0.5 µM; ATP 10 µM.
Sequence of MAP2K2 (human) (P36507 whole entry, looked up): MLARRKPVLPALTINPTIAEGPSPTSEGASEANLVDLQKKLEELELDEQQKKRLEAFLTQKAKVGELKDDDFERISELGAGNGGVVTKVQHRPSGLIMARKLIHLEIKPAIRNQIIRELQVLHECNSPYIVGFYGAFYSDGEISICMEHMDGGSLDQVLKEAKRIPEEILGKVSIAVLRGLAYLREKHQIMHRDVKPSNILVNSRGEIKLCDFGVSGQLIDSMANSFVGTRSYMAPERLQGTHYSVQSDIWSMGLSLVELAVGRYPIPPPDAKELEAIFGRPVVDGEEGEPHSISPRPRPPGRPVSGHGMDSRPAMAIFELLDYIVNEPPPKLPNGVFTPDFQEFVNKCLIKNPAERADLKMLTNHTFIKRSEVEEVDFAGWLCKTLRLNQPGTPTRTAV

**Q.** For N#Cc1c(NC(=O)c2cccc3ccccc23)sc2c1CCCC2, which residual activity is on record?
**A.** Its residual activity is 106%.

**Q.** COc1cc2c(N3CCN(C(=O)Nc4ccc(OC(C)C)cc4)CC3)ncnc2cc1OCCCN1CCCCC1 was tested. Which residual activity did it give?
**A.** Its residual activity is 116%.

**Q.** O=c1[nH]c2ccccc2n1C1CCN(Cc2ccc(-c3nc4cc5[nH]cnc5cc4nc3-c3ccccc3)cc2)CC1 was tested. Which residual activity did it give?
**A.** The residual activity was 86.6%.

**Q.** With O=c1c(-c2ccc(F)cc2)c(-c2ccncc2)[nH]n1-c1ccc(Cl)cc1 as the compound, how does the residual activity read?
**A.** Its residual activity is 82.5%.

The compounds below were run against INSRR (human) (UniProt P14616) in the same assay as above. Settings: compound 0.5 µM; ATP 10 µM.

**Q.** For N#Cc1c(NC(=O)c2cccc3ccccc23)sc2c1CCCC2, which residual activity is on record?
**A.** The residual activity was 94.3%.

**Q.** Which residual activity does the source give for COc1cc2c(N3CCN(C(=O)Nc4ccc(OC(C)C)cc4)CC3)ncnc2cc1OCCCN1CCCCC1 here?
**A.** The residual activity was 98.9%.

**Q.** How did the residual activity turn out when O=c1[nH]c2ccccc2n1C1CCN(Cc2ccc(-c3nc4cc5[nH]cnc5cc4nc3-c3ccccc3)cc2)CC1 was run?
**A.** Its residual activity is 101%.

**Q.** Which residual activity does the source give for O=c1c(-c2ccc(F)cc2)c(-c2ccncc2)[nH]n1-c1ccc(Cl)cc1 here?
**A.** The residual activity was 95.4%.

Each compound was assayed against MUSK (human) (UniProt O15146) in the same assay as above. Settings: compound 0.5 µM; ATP 10 µM.
Sequence of MUSK (human) (O15146 whole entry, looked up): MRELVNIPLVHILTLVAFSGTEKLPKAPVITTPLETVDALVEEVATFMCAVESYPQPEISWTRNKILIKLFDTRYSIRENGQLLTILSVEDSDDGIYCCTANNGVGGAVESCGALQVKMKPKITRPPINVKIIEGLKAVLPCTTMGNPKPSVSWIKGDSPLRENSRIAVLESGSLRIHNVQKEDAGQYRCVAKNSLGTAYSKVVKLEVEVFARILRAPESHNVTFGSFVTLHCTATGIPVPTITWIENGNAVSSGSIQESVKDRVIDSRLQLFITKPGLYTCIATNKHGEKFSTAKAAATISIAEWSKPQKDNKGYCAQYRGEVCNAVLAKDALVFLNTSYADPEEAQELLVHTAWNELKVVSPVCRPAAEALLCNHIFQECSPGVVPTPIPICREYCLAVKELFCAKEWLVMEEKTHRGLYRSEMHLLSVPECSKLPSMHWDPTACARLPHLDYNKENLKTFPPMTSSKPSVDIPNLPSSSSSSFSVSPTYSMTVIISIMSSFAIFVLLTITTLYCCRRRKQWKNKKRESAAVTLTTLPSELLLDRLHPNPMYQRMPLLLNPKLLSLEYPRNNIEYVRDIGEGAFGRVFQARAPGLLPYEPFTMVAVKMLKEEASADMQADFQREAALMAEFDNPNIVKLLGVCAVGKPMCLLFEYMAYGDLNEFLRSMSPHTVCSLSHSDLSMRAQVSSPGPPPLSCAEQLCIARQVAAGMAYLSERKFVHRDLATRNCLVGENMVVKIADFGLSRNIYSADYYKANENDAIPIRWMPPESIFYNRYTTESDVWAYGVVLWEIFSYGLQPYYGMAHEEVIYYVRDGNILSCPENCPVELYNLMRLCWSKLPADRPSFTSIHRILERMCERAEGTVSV

**Q.** N#Cc1c(NC(=O)c2cccc3ccccc23)sc2c1CCCC2 was tested. Which residual activity did it give?
**A.** Its residual activity is 94.8%.

**Q.** CN[C@@H]1C[C@H]2O[C@@](C)([C@@H]1OC)n1c3ccccc3c3c4c(c5c6ccccc6n2c5c31)C(=O)NC4 was tested. Which residual activity did it give?
**A.** The residual activity was 12.2%.

**Q.** Which residual activity does the source give for COc1cc2c(N3CCN(C(=O)Nc4ccc(OC(C)C)cc4)CC3)ncnc2cc1OCCCN1CCCCC1 here?
**A.** The residual activity was 99.6%.

**Q.** O=c1[nH]c2ccccc2n1C1CCN(Cc2ccc(-c3nc4cc5[nH]cnc5cc4nc3-c3ccccc3)cc2)CC1 was tested. Which residual activity did it give?
**A.** Its residual activity is 96.8%.

**Q.** For O=c1c(-c2ccc(F)cc2)c(-c2ccncc2)[nH]n1-c1ccc(Cl)cc1, which residual activity is on record?
**A.** The residual activity was 102%.

These compounds were tested against PHKG1 (human) (UniProt Q16816) in the same assay as above. Settings: compound 0.5 µM; ATP 10 µM.

**Q.** N#Cc1c(NC(=O)c2cccc3ccccc23)sc2c1CCCC2 was tested. Which residual activity did it give?
**A.** The residual activity was 93.8%.

**Q.** For COc1cc2c(N3CCN(C(=O)Nc4ccc(OC(C)C)cc4)CC3)ncnc2cc1OCCCN1CCCCC1, which residual activity is on record?
**A.** Its residual activity is 92.6%.

**Q.** Which residual activity does the source give for O=c1[nH]c2ccccc2n1C1CCN(Cc2ccc(-c3nc4cc5[nH]cnc5cc4nc3-c3ccccc3)cc2)CC1 here?
**A.** The residual activity was 106%.

**Q.** With O=c1c(-c2ccc(F)cc2)c(-c2ccncc2)[nH]n1-c1ccc(Cl)cc1 as the compound, how does the residual activity read?
**A.** The residual activity was 94.1%.

The compounds below were run against CSNK1G2 (human) (UniProt P78368) in the same assay as above. Settings: compound 0.5 µM; ATP 10 µM.
Sequence of CSNK1G2 (human) (P78368 whole entry, looked up): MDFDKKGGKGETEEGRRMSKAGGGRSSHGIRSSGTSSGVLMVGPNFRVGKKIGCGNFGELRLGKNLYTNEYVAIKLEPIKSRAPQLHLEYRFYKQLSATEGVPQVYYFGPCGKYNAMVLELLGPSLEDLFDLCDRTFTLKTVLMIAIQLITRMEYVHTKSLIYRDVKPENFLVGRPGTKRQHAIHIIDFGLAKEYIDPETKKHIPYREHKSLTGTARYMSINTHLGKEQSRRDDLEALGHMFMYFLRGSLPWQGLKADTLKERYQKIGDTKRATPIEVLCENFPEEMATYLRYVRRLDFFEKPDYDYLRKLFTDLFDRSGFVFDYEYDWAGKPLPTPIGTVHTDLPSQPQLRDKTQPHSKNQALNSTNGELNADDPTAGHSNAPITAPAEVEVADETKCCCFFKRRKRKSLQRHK

**Q.** For N#Cc1c(NC(=O)c2cccc3ccccc23)sc2c1CCCC2, which residual activity is on record?
**A.** The residual activity was 103%.

**Q.** For COc1cc2c(N3CCN(C(=O)Nc4ccc(OC(C)C)cc4)CC3)ncnc2cc1OCCCN1CCCCC1, which residual activity is on record?
**A.** Its residual activity is 95.5%.

**Q.** O=c1[nH]c2ccccc2n1C1CCN(Cc2ccc(-c3nc4cc5[nH]cnc5cc4nc3-c3ccccc3)cc2)CC1 was tested. Which residual activity did it give?
**A.** The residual activity was 101%.

Reference: the kinase profiling compilation of Christmann-Franck et al. (2016)
